# Measurements taken from paper PMC9823632, “Nitrogen Acquisition and Transport in the Ectomycorrhizal Symbiosis—Insights from the Interaction between an Oak Tree and Pisolithus tinctorius” (Plants, 2022).
# Legend:
# QsAMT3.2-like (QsAMT3.2) = target: T1, QsAMT3.2-like (QsAMT3.2) (Quercus suber, UniProt Z9KUH6IWZ3); assay: […]-methylammonium uptake in transformed yeast, Michaelis-Menten and Lineweaver-Burk; format: cell-based; conditions: labelled compound; yeast 31019b; substrate of the Km taken from the methods; read-out: apparent Km
# T1 construct: full-length cDNA from ectomycorrhizal cork oak roots in pDR196, expressed in yeast strain 31019b (mep1 mep2 mep3 deleted)
# T1 sequence (Z9KUH6IWZ3 1-486): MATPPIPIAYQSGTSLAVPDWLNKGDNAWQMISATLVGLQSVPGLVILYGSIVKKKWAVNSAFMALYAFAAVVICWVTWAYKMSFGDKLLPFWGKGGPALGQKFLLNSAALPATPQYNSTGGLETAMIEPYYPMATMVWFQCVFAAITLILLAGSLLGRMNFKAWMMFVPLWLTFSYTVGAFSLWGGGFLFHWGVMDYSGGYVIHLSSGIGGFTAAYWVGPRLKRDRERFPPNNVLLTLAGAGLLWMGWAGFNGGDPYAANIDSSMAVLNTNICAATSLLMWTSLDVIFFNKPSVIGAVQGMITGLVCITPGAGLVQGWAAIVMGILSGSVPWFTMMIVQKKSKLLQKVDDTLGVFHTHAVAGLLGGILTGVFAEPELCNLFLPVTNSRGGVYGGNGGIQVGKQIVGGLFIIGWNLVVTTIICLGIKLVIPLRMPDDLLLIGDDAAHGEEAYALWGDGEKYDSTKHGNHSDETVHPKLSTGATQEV
# QsAMT1.2-like (QsAMT1.2) = target: T2, QsAMT1.2-like (QsAMT1.2) (Quercus suber, UniProt Z9N9G6J3T1); assay: as above; format: cell-based; conditions: labelled compound; yeast 31019b; substrate of the Km taken from the methods; read-out: apparent Km
# T2 construct: full-length cDNA from ectomycorrhizal cork oak roots in pDR196, expressed in yeast strain 31019b (mep1 mep2 mep3 deleted)
# T2 sequence (Z9N9G6J3T1 1-510): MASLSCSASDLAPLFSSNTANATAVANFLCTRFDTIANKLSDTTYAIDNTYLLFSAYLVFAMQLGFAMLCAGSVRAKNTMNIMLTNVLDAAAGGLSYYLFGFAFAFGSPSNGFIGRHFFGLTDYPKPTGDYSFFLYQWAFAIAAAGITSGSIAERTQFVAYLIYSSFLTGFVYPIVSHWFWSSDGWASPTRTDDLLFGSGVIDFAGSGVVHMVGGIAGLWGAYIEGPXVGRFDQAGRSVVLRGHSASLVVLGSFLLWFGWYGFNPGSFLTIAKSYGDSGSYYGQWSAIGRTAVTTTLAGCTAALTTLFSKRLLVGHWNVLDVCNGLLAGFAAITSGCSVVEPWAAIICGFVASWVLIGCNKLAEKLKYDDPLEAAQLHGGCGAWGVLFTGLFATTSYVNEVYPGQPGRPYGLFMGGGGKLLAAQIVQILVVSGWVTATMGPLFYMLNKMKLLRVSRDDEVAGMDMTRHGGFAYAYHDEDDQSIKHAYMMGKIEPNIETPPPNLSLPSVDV
compound,measurement,setting,value
CN [[14C]-methylammonium],Km,QsAMT3.2-like (QsAMT3.2),0.6 µM
same,Km,QsAMT1.2-like (QsAMT1.2),667 µM
